The text below walks through data of PubChem BioAssay (NCI).

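Exposure lasted 48 hours, with cells grown in 96-well plates and compounds tested at five concentrations. GI50: concentration for 50% inhibition of growth. TGI is the concentration that stops growth completely.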

Assay in all cases: growth of human tumour cells (NCI), 48 h
Test [1] deals with SK-MEL-28 melanoma.
The test system of test [2] is RPMI-8226 leukemia.
Test [3] deals with MALME-3M melanoma.
For test [4], the system named is RXF 393 renal.
The subject of test [5] is NCI/ADR-RES ovarian.
Test [6] relates to OVCAR-3 ovarian.
Test [7] deals with K-562 leukemia.
For test [8], the system named is EKVX NSCLC.
Test [9] concerns SW-620 colon.
Test [10] has as its system UO-31 renal.
Test [11] has as its system NCI-H226 lung.
For test [12], the system named is PC-3 prostate.
Test [13] has as its system 786-0 renal.

Turning to `CN1CCN(P2(=S)Oc3ccc4ccccc4c3-c3c(ccc4ccccc34)O2)CC1`, the TGI is greater than 100 µM in test [1]; 43.1 µM in [2]; 50.8 µM in test [3]; greater than 94.7 µM in test [4]; greater than 71 µM in [5]; greater than 100 µM in test [6]. Moreover, the TGI in test [7] is greater than 76.9 µM; in [8], greater than 77.8 µM; in test [9] it was greater than 100 µM; in test [10] it was 48 µM; in test [11], greater than 92.3 µM.
Turning to `O=C1N[C@@H]2C(=C[C@H](O)[C@@H](O)[C@H]2O)c2cc3c(c(O)c21)OCO3`, the TGI in [1] came to 0.0944 µM; in test [2] it was 0.0858 µM; in test [3] it was 0.0535 µM; in test [5], 0.0972 µM; in test [6], 0.0639 µM; in test [7], 0.0955 µM. Also, the TGI in test [8] worked out at 0.0743 µM; in [9], 2.67 µM; in test [10], 0.0955 µM; in test [11], 0.0876 µM.
Regarding `CCOC(=O)c1c[nH]c2ccc3c(c2c1=O)S(=O)(=O)CC3` (tested in a mixture with another compound), the TGI in [1], in test [2], in [3], in [4], in [5] and in [6] was greater than 100 µM throughout. In addition, the TGI in [7], in test [8], in test [9], in test [10] and in [11] was greater than 100 µM throughout.
`O=C1CCCC/C1=C\c1ccc(Cl)c(Cl)c1`: the TGI is 37.7 µM in test [1]; 48 µM in [7]; greater than 100 µM in test [8]; 50.7 µM in test [9]; 34 µM in test [10].
For `COC(=O)C1CCC(=O)N1C(c1ccc2c(c1)OCO2)c1cc(OC)c(OC)c(OC)c1` (stereo unspecified), the TGI in test [1], in test [12], in [2], in [3], in test [13] and in [6] was greater than 100 µM throughout. Besides, the TGI in [7], in test [8], in [9], in test [10] and in test [11] was greater than 100 µM throughout.
For the molecule `CCCn1c(=O)c(N2CCN(c3ccccc3)CC2)nc2sc3ccccc3c21`, the TGI in test [1], in test [12], in [3], in test [13], in test [5] and in test [6] was greater than 100 µM in each case. The TGI in test [8], in test [9] and in [10] was greater than 100 µM each time.
In the case of `CCCCCCCCCCCC[N+](CCCCCCCCCCCC)=C1SCCS1`, the TGI in test [1] was determined as 22.9 µM; in test [2], 4.4 µM; in [3] it was 19.1 µM; in [13] it was 11.8 µM; in test [4], 14.8 µM; in test [6], 19.8 µM. Besides, the TGI in test [8] was determined as 26 µM; in test [9] it was 10.1 µM; in test [10], 26.2 µM; in [11] it was 28.2 µM.
For `O=C(O)c1ccccc1N=Nc1c(O)c(S(=O)(=O)O)cc2cc(S(=O)(=O)O)ccc12`, the TGI in test [1], in test [12], in test [2], in test [13], in test [4] and in [6] was greater than 100 µM in each case. The TGI in test [7], in test [8], in test [9] and in [10] was greater than 100 µM in each case.
For `COC(=O)C(=O)Cc1nc2ccccc2o1`, the TGI in test [1], in test [3], in test [4], in test [6], in test [7] and in test [8] was greater than 100 µM throughout. This molecule also had a TGI in [10] greater than 100 µM.
For the molecule `COc1cc(O)c2c(=O)c(OC)c(-c3ccc(OC)c(OC)c3)oc2c1`, the GI50 was 18 µM in test [1]; greater than 100 µM in test [12]; greater than 100 µM in test [3]; 62.7 µM in [5]; greater than 100 µM in test [6]; greater than 100 µM in test [7]. Also, the GI50 in [8] is greater than 100 µM. In addition, the TGI in test [1] was 51.6 µM; in test [12], greater than 100 µM; in test [2], greater than 100 µM; in test [3] it was greater than 100 µM; in [5], greater than 100 µM; in test [6], greater than 100 µM. Also, the TGI in test [7], in [8], in test [9] and in test [10] was greater than 100 µM throughout.
On to `O=NN(CCF)C(=O)NC1CCSCC1`, for which the TGI in [1], in test [2], in [3], in test [4], in test [5] and in [6] was greater than 100 µM in each case. Also, the TGI in test [7] is greater than 31.6 µM; in [9], greater than 100 µM; in test [10], greater than 100 µM.
As to `CC(C)(CCC(C)(C)N1OC1c1ccccc1)N1OC1c1ccccc1` (stereo unspecified), the TGI in [1] is greater than 100 µM; in test [12] it was greater than 100 µM; in test [2], 71.4 µM; in test [3], greater than 100 µM; in test [13], greater than 100 µM; in test [5], greater than 100 µM. Further, the TGI is 37.7 µM in test [7], greater than 100 µM in [9], 62.7 µM in test [10] and greater than 100 µM in test [11].
Consider `O=C1Cc2c([nH]c3ccc(C(=O)O)cc23)-c2ccccc2N1`, for which the TGI in [1], in test [12], in test [2], in test [3], in test [13] and in test [5] was greater than 100 µM throughout. Further, the TGI in test [6], in test [7], in test [9], in [10] and in test [11] was greater than 100 µM each time.
With `COC(=O)Cc1c(-c2c(CC(=O)OC)c3ccccc3n2C2OC(COC(C)=O)C(OC(C)=O)C(OC(C)=O)C2OC(C)=O)[nH]c2ccccc12` (stereo unspecified), the TGI in test [1], in test [12], in [2], in test [3], in test [6] and in [8] was greater than 100 µM in each case. The TGI in [9] and in test [10] was greater than 100 µM throughout.
Regarding `Cc1cc(NS(=O)(=O)c2ccc(NC(=O)c3cccc4c(Nc5ccc(S(N)(=O)=O)cc5)c5ccccc5nc34)cc2)no1`, the TGI in test [1], in test [2], in test [3], in test [4], in test [6] and in test [7] was greater than 100 µM in each case. The TGI in test [8] and in test [10] was greater than 100 µM throughout.
For `Cn1c(=O)n2n(c1=O)C(C)(C13CC4CC(CC(C4)C1)C3)C13CC4CC(CC1C4)CC23` (stereo unspecified), the TGI in test [1], in test [12], in test [2], in test [5], in test [6] and in test [7] was greater than 100 µM each time. The TGI in test [8], in test [9], in [10] and in [11] was greater than 100 µM each time.
Take `Nc1ccc(Nc2cc(=O)[nH]c(=O)[nH]2)cc1Cl`: the TGI in [1], in test [12], in [2], in test [3], in [13] and in test [5] was greater than 100 µM each time. For the same molecule, the TGI in [6], in [7], in test [9], in test [10] and in [11] was greater than 100 µM each time.
For `O=C(c1ccco1)N(C(=O)N1CCN(c2ccccc2)CC1)S(=O)(=O)c1ccccc1`, the TGI is greater than 100 µM in [1]; greater than 100 µM in test [12]; 99.8 µM in [3]; greater than 100 µM in [13]; 55.1 µM in [5]; greater than 100 µM in [6]. Also, the TGI was greater than 100 µM in test [7]; 60.2 µM in [8]; greater than 100 µM in test [9]; 53.6 µM in [10]; greater than 100 µM in [11].
`CCC1C(c2ccccc2O)c2cc3c(cc2OC1N1CCOCC1)OCO3` (stereo unspecified): the TGI in test [1] worked out at 33.9 µM; in [12] it was 26 µM; in test [2], 43.8 µM; in test [3] it was 26 µM; in [13], 43.9 µM; in test [4], 28.9 µM. Also, the TGI worked out at 25.4 µM in [6]; 31.5 µM in [7]; 25.4 µM in test [8]; 33 µM in [9]; 27 µM in test [10]; 36.3 µM in test [11].
